Usually AC50 stands for the concentration at which the activity in the assay is half-maximal.

Here are results for 13 compounds from ChEMBL document CHEMBL1201862, “PubChem BioAssay data set” (2004).

The target of experiment [1] is Kallikrein-7 (Homo sapiens, UniProt P49862). Nature of the experiment: Fluorescence Intensity-based biochemical primary high throughput dose response assay to identify activators of kallikrein-7 (K7) zymogen.
A short description of experiment [2]: P. falciparum Dd2 growth inhibitors, dose response, SYBR Green, dry powder samples, set 9 (AID 1159568). The class given is functional, cell-based.
Experiment [3] can be described thus: HepG2 cell cytotoxicity, dose response, cytotoxicity control, plate reader, dry powder samples (AID 1159569).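 Further: inhibitor potency with signal falling toward the positive control level.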 It counts as functional, cell-based.
The nature of experiment [4]: P. falciparum ATP4 D1247Y mutant growth inhibitors, dose response, NITD609-resistant line, SYBR Green, dry powder (AID 1159571).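 Further: parasites synchronized at ring stage by sorbitol before testing.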 It counts as functional, cell-based.
A short description of experiment [5]: P. falciparum Dd2 growth inhibitors, dose response, SYBR Green, cherry-picked samples (AID 1159567). It counts as functional, cell-based.
Experiment [6] is described as follows: P. falciparum Dd2 growth inhibitors, dose response, SYBR Green, dry powder samples (AID 1159566).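 Further: potency for growth inhibition with lower SYBR green DNA signal.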 It counts as functional, cell-based.
The nature of experiment [7]: P. falciparum 3D7-ScDHODH growth inhibitors, dose response, SYBR Green, dry powder samples (AID 1159570).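 Further: parasite growth measured after 72 hours of compound exposure.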 It counts as functional, cell-based.
The test system of experiment [8] is Vero. Nature of the experiment: Vero cell toxicity, dose response, cytotoxicity control, plate reader, cherry-pick samples (AID 687020). It counts as functional, cell-based. The conditions noted are these: Chlorocebus sabaeus.
The target in experiment [9] is T1, Corticotropin-releasing factor receptor 2/Corticotropin-releasing factor-binding protein (Homo sapiens, UniProt P24387+Q13324).
T1 sequence (Q13324 whole entry): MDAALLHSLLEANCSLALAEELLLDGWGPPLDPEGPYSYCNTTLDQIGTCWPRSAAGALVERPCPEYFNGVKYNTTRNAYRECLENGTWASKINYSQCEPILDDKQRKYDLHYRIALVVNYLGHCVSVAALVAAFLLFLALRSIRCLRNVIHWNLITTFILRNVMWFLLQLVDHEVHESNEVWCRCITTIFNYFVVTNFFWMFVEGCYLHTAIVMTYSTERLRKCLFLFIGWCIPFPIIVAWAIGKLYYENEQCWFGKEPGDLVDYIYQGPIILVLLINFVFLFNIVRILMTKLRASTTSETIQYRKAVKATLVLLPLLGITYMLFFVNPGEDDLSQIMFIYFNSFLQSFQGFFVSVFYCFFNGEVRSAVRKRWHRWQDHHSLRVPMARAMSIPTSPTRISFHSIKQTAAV
T1 sequence (P24387 whole entry): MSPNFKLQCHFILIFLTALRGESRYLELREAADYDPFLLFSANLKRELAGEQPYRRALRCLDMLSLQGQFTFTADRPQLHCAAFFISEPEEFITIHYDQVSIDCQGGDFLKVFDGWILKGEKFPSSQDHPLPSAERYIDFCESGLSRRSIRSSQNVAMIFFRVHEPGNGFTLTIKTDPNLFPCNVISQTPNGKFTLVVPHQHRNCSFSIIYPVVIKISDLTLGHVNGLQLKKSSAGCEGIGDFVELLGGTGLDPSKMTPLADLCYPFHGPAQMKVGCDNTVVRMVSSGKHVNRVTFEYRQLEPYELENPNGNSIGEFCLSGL
Nature of the experiment: activators of CRF receptor 2 with binding protein – uHTS hits, confirmation (AID 602473). It counts as functional. The conditions noted are these: read-out: EC50_Mean.

A short description of experiment [10]: HEK293T cell cytotoxicity, dose response, cytotoxicity control for HIV Vif inhibitor project, cherry-picks (AID 652208). It counts as functional, cell-based.
The nature of experiment [11]: inhibitors of PGC1a acetylation in cells, dose response, cell-based, cherry-picked samples (AID 720514).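 Further: potency may reflect raised or lowered acetylation signal.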 The class given is functional.
Experiment [12] has as its target T2, Carboxy-terminal domain RNA polymerase II polypeptide A small phosphatase 1 (Homo sapiens, UniProt Q9GZU7).
T2 sequence (Q9GZU7 whole entry): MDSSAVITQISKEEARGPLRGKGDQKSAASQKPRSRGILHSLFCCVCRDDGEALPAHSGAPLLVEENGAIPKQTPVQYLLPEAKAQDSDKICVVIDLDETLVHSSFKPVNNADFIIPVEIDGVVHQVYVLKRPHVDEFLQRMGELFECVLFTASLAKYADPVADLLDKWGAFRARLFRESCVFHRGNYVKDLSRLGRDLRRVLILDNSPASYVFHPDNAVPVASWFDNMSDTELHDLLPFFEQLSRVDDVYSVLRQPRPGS
Nature of the experiment: inhibitors of CTDSP1, concentration-response testing, biochemical assay, absorbance-based, actives from ultra-high-throughput screening (AID 540297). It counts as functional.

Experiment [13] concerns the target T3, Small ubiquitin-related modifier 1 (Homo sapiens, UniProt P63165). Nature of the experiment: inhibitors of SUMO1 partner interactions, dose response, biochemical, FRET (AID 624383). The class given is functional. The note with it: read-out: IC50_Mean.
Experiment [14] addresses T4, Caspase-6 (Homo sapiens, UniProt P55212).
T4 sequence (P55212 whole entry): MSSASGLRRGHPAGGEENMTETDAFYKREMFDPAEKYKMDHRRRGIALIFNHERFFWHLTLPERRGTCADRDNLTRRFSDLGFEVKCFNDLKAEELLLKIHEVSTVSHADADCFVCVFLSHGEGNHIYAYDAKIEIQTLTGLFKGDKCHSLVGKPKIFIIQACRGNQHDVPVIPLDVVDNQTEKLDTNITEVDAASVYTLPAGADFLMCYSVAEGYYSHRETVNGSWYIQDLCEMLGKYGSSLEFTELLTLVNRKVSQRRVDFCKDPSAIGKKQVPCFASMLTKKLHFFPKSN
Nature of the experiment: human caspase-6 inhibitors, dose response, biochemical, VEID-R110 fluorescence, cherry-pick (AID 720632).

The target in experiment [15] is T3, Small ubiquitin-related modifier 1. Nature of the experiment: inhibitors of SUMO1 peptide binding, dose response, biochemical, fluorescence polarization, uHTS hits (AID 624382). The note with it: read-out: IC50_Mean. It counts as functional.
Experiment [16] concerns the target T5, Mannose-6-phosphate isomerase (Homo sapiens, UniProt P34949).
T5 sequence (P34949 whole entry): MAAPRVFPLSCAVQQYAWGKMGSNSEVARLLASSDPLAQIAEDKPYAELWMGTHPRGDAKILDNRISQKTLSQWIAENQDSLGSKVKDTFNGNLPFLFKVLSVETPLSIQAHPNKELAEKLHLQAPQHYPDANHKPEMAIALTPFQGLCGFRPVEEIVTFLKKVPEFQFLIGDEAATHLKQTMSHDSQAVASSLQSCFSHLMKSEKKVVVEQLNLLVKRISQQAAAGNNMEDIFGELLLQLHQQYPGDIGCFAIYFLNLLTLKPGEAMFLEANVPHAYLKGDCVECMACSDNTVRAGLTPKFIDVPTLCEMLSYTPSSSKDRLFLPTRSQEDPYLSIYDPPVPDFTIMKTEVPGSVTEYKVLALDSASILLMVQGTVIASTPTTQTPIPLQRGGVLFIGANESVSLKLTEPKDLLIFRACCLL
Nature of the experiment: human PMI inhibitors, high substrate, primary screen, biochemical, fluorescence intensity, high mannose 6-phosphate (AID 1220).

A short description of experiment [17]: microbe, parasite or virus in culture. It counts as functional. The conditions noted are these: Mycobacterium tuberculosis.
Experiment [18] in a line: cells. It counts as functional.
The nature of experiment [19]: HEK293T cytotoxicity, dose response, cytotoxicity control for miR-122 modulator project, cell-based, inhibitor set, cherry-pick, set 2 (AID 720697). It counts as functional.

Activity calls are given as the source filed them. Some results are limits rather than exact numbers.

T3 sequence (P63165 whole entry): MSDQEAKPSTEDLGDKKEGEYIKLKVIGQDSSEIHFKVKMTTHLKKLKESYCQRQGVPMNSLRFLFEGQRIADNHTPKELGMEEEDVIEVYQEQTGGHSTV
Kallikrein-7, sequence (P49862 whole entry): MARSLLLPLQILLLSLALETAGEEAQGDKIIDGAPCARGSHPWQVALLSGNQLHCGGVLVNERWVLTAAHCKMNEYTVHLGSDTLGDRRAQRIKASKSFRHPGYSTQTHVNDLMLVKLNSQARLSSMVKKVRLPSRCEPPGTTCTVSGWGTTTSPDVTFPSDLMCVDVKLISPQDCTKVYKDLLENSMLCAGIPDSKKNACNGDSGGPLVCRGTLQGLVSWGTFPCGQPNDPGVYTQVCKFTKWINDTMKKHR

Regarding `N#Cc1c(N2CCOCC2)nc(N)c2c(N)nc3c(c12)CC(CCl)O3` (centres undefined), the EC50 in [1] is > 69.5 µM (inactive). For the compound `O=C(Nc1ccccc1F)N1CCCCN2[C@H](CO)[C@H](c3ccc(/C=C/c4ccccc4)cc3)[C@@H]2C1`, in experiment [2], the AC50 was 12 µM (active). In the case of `C[C@H](CO)N1C[C@H](C)[C@H](CN(C)C(=O)C2CCCCC2)Oc2ncc(C#Cc3cccc(F)c3)cc2C1=O`, the AC50 in experiment [3] is 49.1 µM (active); in experiment [4], 0.725 µM (active); in experiment [5] it was 1.39 µM (active); in [2], 0.269 µM (active); in [6] it was 0.408 µM (active); in experiment [7], 0.848 µM (active).

As for `Cc1ccc(CNC(=O)C2CCC(=O)N(CCc3ccccn3)C2)s1` (centres undefined), the AC50 in [8] was 35.6 µM (active). `Cc1ccc(CNC(=O)c2cccc3c2C(=O)c2ccc(N4CCC(C)CC4)cc2S3(=O)=O)cc1`: in experiment [9], the EC50 is 5.51 µM (active). Besides, the AC50 in [10] is 39.3 µM (active). As to `O=C1C=CCCN1S(=O)(=O)/C=C/c1ccccc1`, the AC50 in experiment [11] is 1.19 µM (active). Regarding `CC1=CCC(C(=O)O)C(C(=O)NC2CCCCC2)C1` (centres undefined), the figures for the IC50 in experiment [12], in [13] and in experiment [15] were 33.8 µM (active), 20.4 µM (inactive) and > 66.6 µM (inactive), respectively. Moreover, the AC50 in [14] is 10.2 µM (active).

For `CCCCn1c(Cc2ccccc2)nnc1SCC(=O)Nc1cc(C)on1`, in [16], the IC50 is recorded as > 50 µM (not active).

For the compound `Cc1cc(=O)n2cccc(O)c2n1`, the CC50 in experiment [17] was > 40 µM (active). The values for the IC50 in experiment [16] and in experiment [18] were 22.9 µM (active) and 9.19 µM (active), respectively. Take `Cc1ccc(S(=O)(=O)c2nc(-c3ccccc3Cl)oc2N(C)C2CCN(C)CC2)cc1`: in [10], the AC50 was 23.3 µM (active). As for `C[C@H](CO)N1C[C@H](C)[C@H](CN(C)C(=O)C2CCC2)Oc2cc(-c3ccc(C(=O)N(C)C)cc3)ccc2S1(=O)=O`, the AC50 in experiment [19] was 9.74 µM (active).

For the compound `CC(C)C(=O)Nc1ccc2c(c1)C(=O)N(C)[C@H]1CC[C@H](CC(=O)O)O[C@H]1CO2`, the AC50 in experiment [19] was 0.437 µM (active). Turning to `CS(=O)(=O)Nc1ccc(-c2cnc3cccnn23)cc1`, the EC50 in [1] was 24.1 µM (inactive).
